{"source": "BindingDB's records for doi:10.1021/jm049388p", "about": "(Merck Research Laboratories, 2004)", "target": "Beta-secretase 1 (Homo sapiens, UniProt P56817)", "sequence (P56817 whole entry)": "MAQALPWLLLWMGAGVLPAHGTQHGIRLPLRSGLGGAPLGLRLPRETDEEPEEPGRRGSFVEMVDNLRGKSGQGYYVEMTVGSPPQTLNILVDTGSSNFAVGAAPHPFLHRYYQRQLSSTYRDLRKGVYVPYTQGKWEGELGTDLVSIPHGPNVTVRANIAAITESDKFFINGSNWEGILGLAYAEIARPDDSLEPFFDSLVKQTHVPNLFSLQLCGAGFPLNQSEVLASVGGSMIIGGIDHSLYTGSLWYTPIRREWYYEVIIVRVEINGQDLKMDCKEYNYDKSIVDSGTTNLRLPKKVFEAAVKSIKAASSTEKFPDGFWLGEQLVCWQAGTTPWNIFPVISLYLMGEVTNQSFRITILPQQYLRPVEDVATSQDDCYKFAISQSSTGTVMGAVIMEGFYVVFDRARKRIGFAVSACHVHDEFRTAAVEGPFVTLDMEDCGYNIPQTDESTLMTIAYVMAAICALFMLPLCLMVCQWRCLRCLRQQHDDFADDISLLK", "experiment": "In Vitro BACE1 Activity Assay", "conditions": "pH 4.5; 22 °C", "method": "The assay was performed using a 96-well format on a HPLC equipped with four 96-well plate holders. Test compounds were preincubated with enzymes for 30min, followed by the addition of substrate. The solution was then incubated for an additional 30 min at room temperature. After the reaction was terminated, the solution was filtered, and the filtrate was subjected to HPLC analysis. The substrate and product were monitored by fluorescence detection (340nm excitation, 440 nm emission)."}
{"smiles": "C[C@H](NC(=O)c1cc(OCC(=O)NCCCCCN)cc(OS(=O)(=O)Cc2ccccc2)c1)c1ccccc1", "note": "[3-{[(5-aminopentyl)carbamoyl]methoxy}-5-{[(1S)-1-phenylethyl]carbamoyl}phenyl 1-phenylmethanesulfonate]", "values": [{"measurement": "IC50", "result": "> 100", "unit": "µM"}]}
